Results on two compounds are retold here after ChEMBL document CHEMBL3351367, “Base-dependent formation of cis and trans olefins and their application in the synthesis of 5-oxo-ETE receptor antagonists” (Bioorg Med Chem Lett, 2014).

This experiment has as its target Oxoeicosanoid receptor 1 (Homo sapiens, UniProt Q8TDS5). As to the kind of experiment: Antagonist activity at 5-oxo-ETE receptor in human neutrophils assessed as inhibition of 5-oxo-ETE-induced Ca2+ mobilization incubated for 2 mins prior to 5-oxo-ETE addition by indo-1 staining-based spectrofluorometry. Format: functional.

Chain of Oxoeicosanoid receptor 1 (Q8TDS5 whole entry): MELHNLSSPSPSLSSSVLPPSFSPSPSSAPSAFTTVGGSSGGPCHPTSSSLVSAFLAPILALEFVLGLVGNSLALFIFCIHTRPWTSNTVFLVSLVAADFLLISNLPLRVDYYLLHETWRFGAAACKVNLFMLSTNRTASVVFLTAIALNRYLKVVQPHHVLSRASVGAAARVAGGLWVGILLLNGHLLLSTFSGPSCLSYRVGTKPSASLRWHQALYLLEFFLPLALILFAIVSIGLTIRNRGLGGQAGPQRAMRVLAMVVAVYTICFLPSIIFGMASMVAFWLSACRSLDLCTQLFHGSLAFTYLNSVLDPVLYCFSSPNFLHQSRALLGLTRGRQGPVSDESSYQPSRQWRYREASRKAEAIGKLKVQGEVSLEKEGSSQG

In the case of `CCCC/C=C\c1cc2ccc(Cl)cc2n1C(=O)CC(C)CC(=O)O` (configuration not stated), the 50% inhibitory concentration (IC50) came to 0.46 µM.

For the compound `CCCC/C=C/c1cc2ccc(Cl)cc2n1C(=O)CC(C)CC(=O)O` (configuration not stated), the IC50 was determined as 18.5 µM.
